The text below walks through data of patent publication US11617740B2, “Chemical inhibitors of Mycobacterium tuberculosis DosRST signaling and persistence” (priority 2017, dated 2023).

“And” between values parts separate entries of the source, which are not always exact repeats. Equal entries are not always repeated. “Also recorded” adds a separate entry of the source.

Experiment [1] addresses DosS(E87L) (Mycobacterium tuberculosis, UniProt P9WGK3, E87L). It counts as biochemical.
The target of experiment [2] is T1, WT DosS heme (Mycobacterium tuberculosis, UniProt P9WGK3). In words: UV-visible spectroscopy of DosS heme. To be noted: for position of DosS Soret peak after treatment: DTN-reduced DosS (430 nm), 100 μM. Format: biochemical.
The subject of experiment [3] is DosR regulon. It counts as cell-based. Conditions: ΔdosR mutant, 40 μM, >2-fold; q<0.05.
Experiment [4] deals with DosS(G117L) (Mycobacterium tuberculosis, UniProt P9WGK3, G117L). Format: biochemical.
The target of experiment [5] is T1, WT DosS heme. Conditions: identical conditions, gradual shift to oxidized state; cited from earlier work.

As for `O=C(Nc1ccno1)Nc1ccc(Cl)cc1Cl` [HC106A], in experiment [1], the “change of DosS E87L UV-visible spectrum” value is reported as “no change on overall spectrum” and the “position of DosS(E87L) Soret peak after treatment” value amounted to 422 nm. Also, in experiment [2], the “position of DosS Soret peak after treatment” value was 422 nm and ~420 nm. For the same compound, in experiment [3], the “genes downregulated in CDC1551(ΔdosR) background” value came to 51 genes. Also, the “change of DosS(G117L) UV-visible spectrum” value in experiment [4] is given as “no change to the overall spectrum; also recorded: did not change; also recorded: promoted HC106A resistance”.
On to `[C-]#[O+].[C-]#[O+].[C-]#[O+].[C-]#[O+].[C-]#[O+].[C-]#[O+].[Cl][Ru][Cl].[Cl][Ru][Cl]` [CORM-2, tricarbonylchlororuthenium(II) dimer, reference compound], for which, in experiment [2], the “position of DosS Soret peak after treatment” value was 422 nm.
Turning to `[C-]#[O+]` [CO, carbon monoxide, reference compound], in experiment [2], the “position of DosS Soret peak after treatment” value came to 422 nm.
Regarding `C[C@@H]1CC[C@H]2[C@@H](C)C(=O)O[C@@H]3O[C@@]4(C)CC[C@@H]1[C@]32OO4` [artemisinin, reference compound], the “position of DosS Soret peak after treatment (earlier work)” value in experiment [5] is reported as 403 nm.
As for `CN(C)CCCN1C(=O)c2cccc3c(Br)ccc(c23)C1=O` [HC104A], the “effect on DosS UV-visible spectrum / heme redox” value in experiment [2] (DTN-reduced DosS, 400 μM HC104A) is recorded as “no change; also recorded: inhibitory activity was not observed; also recorded: no impact on the position of the Soret peak”. Besides, the “genes downregulated in CDC1551(ΔdosR) background” value in experiment [3] was determined as 171 genes.
